# Test results reported in publication PMC7248394 (Frontiers in Chemistry, 2020).
# “Also recorded” adds a separate entry of the source. Residues, ends and D or L forms follow the SMILES beside them. *: point of attachment. 5FAM = O=C1OC2(c3ccc(O)cc3Oc3cc(O)ccc32)c2ccc(C(=O)*)cc21
# What was measured:
# [1] = biological target: T1, IN1−288 F185K/C250S (HIV-1 integrase) (Human immunodeficiency virus type 1 group M subtype B, UniProt P12497, C1427S/F1332K); assay: Fluorescence anisotropy binding of fluorescein-labeled IN181−188 peptides to IN; settings: for Hill coefficient (n): fluorescence anisotropy, IN titrated into 100 nM fluorescein-labeled peptide, 10°C, ionic strength 1 M (NaCl), fit to Hill equation
# T1 construct: we first expressed and purified IN1−288 F185K/C250S as previously described; made in house
# Protocol: To test the activity of the cyclic peptide-peptoid hybrids, we first expressed and purified IN1−288 F185K/C250S as previously described (Gabizon et al., [2013]). The double mutant protein was used since it has similar activity as the wild-type but higher solubility (Jenkins et al., [1996]). […] The Hill coefficient for all the cyclic peptides was approximately 4, indicating cooperative binding of the peptides to tetrameric IN.
# IN was titrated into a solution of 100 nM fluorescein labeled (Fl) IN181−188 cyclic peptides and into linear IN181−188, which served as a control. Anisotropy measurements were performed generally as described (Friedler et al., [2002]) at 10°C with ionic strength of 1 M (adjusted by NaCl) and the binding curves were fit to the Hill equation (Figure 8, Table 1).
# trypsin = assay: 7 μL of 8 μM trypsin added to peptide in 360 μL of HEPES 20 mM pH = 7.5; settings: 37 °C, up to about 30 h
Compound,Kd [1] [µM],Hill coefficient (n) [1],fragment found (trypsin)
CC[C@H](C)[C@@H]1NC(=O)[C@H](Cc2ccccc2)NC(=O)CN(C(=O)[C@H](Cc2c[nH]c3ccccc23)NC(=O)c2ccc3c(c2)C(=O)OC32c3ccc(O)cc3Oc3cc(O)ccc32)CCCn2cc(nn2)CN(CC(N)=O)C(=O)[C@H](CCCCN)NC(=O)[C@H](CCCNC(=N)N)NC(=O)[C@H](CCCCN)NC(=O)[C@H](Cc2ccccc2)NC(=O)[C@H](CC(N)=O)NC(=O)[C@H](Cc2c[nH]cn2)NC1=O [Fl-C-1],8.1 ± 0.2,3.8 ± 0.4,–
CC[C@H](C)[C@@H]1NC(=O)[C@H](Cc2ccccc2)NC(=O)CN(C(=O)[C@H](Cc2c[nH]c3ccccc23)NC(=O)c2ccc3c(c2)C(=O)OC32c3ccc(O)cc3Oc3cc(O)ccc32)Cc2cn(nn2)CCCN(CC(N)=O)C(=O)[C@H](CCCCN)NC(=O)[C@H](CCCNC(=N)N)NC(=O)[C@H](CCCCN)NC(=O)[C@H](Cc2ccccc2)NC(=O)[C@H](CC(N)=O)NC(=O)[C@H](Cc2c[nH]cn2)NC1=O [Fl-C-2],9 ± 0.2,3.8 ± 0.3,–
CC[C@H](C)[C@@H]1NC(=O)[C@H](Cc2ccccc2)NC(=O)CN(C(=O)[C@H](Cc2c[nH]c3ccccc23)NC(=O)c2ccc3c(c2)C(=O)OC32c3ccc(O)cc3Oc3cc(O)ccc32)CCn2cc(nn2)CN(CC(N)=O)C(=O)[C@H](CCCCN)NC(=O)[C@H](CCCNC(=N)N)NC(=O)[C@H](CCCCN)NC(=O)[C@H](Cc2ccccc2)NC(=O)[C@H](CC(N)=O)NC(=O)[C@H](Cc2c[nH]cn2)NC1=O [Fl-C-3],7.7 ± 0.5,2.8 ± 0.5,–
CC[C@H](C)[C@@H]1NC(=O)[C@H](Cc2ccccc2)NC(=O)CN(C(=O)[C@H](Cc2c[nH]c3ccccc23)NC(=O)c2ccc3c(c2)C(=O)OC32c3ccc(O)cc3Oc3cc(O)ccc32)Cc2cn(nn2)CCN(CC(N)=O)C(=O)[C@H](CCCCN)NC(=O)[C@H](CCCNC(=N)N)NC(=O)[C@H](CCCCN)NC(=O)[C@H](Cc2ccccc2)NC(=O)[C@H](CC(N)=O)NC(=O)[C@H](Cc2c[nH]cn2)NC1=O [Fl-C-4],7 ± 0.2,2.5 ± 0.2,–
"CC[C@H](C)[C@H](NC(=O)[C@H](Cc1ccccc1)NC(=O)CNC(=O)[C@H](Cc1c[nH]c2ccccc12)NC(=O)c1ccc2c(c1)C(=O)OC21c2ccc(O)cc2Oc2cc(O)ccc21)C(=O)N[C@@H](Cc1c[nH]cn1)C(=O)N[C@@H](CC(N)=O)C(=O)N[C@@H](Cc1ccccc1)C(=O)N[C@@H](CCCCN)C(=O)N[C@@H](CCCNC(=N)N)C(=O)N[C@@H](CCCCN)C(=O)NCC(N)=O [Fl-WT IN181−188, reference compound] (5FAM-WGFIHNFKRKG-NH2; N-terminus assumed)",7.6 ± 0.2,3.6 ± 0.4,–
"H2N-W-G(N-alkyl)-F-I-H-N-F-K-R-K-G(N-alkyl)-NH2, the two N-alkyl groups joined by a triazole bridge (n=3, R=H)",–,–,"digested C-2 (C-2 + 18 Da, addition of water)"
H2N-W-G(N-propargyl)-F-I-H-N-F-K-R-K-G(N-(CH2)3-N3)-NH2,–,–,"G(N-propargyl)FIHNFKR, major; also recorded: G(N-propargyl)FIHNFK"
